Activity calls are given as the source filed them.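 The calls were made as follows: active = EC50 of 10 µM or lower; inactive = EC50 above 10 µM.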 Some results are limits rather than exact numbers.

For this assay, the target named is Trace amine-associated receptor 1 (Homo sapiens) (UniProt Q96RJ0). Put plainly: TAAR1 agonists raising cellular cAMP, late-stage follow-up, cell-based, fluorescence, human, MDRUN002 (AID 1053177). The note with it: CHO TAAR1-HGA16 cells, cAMP TR-FRET, agonist.
Chain of Trace amine-associated receptor 1 (Homo sapiens) (Q96RJ0 whole entry, looked up, the tested form may be a part): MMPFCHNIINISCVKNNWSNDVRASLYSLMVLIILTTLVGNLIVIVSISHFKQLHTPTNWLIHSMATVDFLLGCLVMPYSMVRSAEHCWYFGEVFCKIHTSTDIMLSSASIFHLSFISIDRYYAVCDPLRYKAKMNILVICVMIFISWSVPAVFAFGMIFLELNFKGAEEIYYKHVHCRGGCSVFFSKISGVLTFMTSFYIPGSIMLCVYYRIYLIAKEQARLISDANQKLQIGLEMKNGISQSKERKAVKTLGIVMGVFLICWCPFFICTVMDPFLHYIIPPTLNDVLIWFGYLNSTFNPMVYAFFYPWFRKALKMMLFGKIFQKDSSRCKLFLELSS
On to `N#Cc1c(C(F)(F)F)cc(-c2ccc(Cl)cc2)nc1SCC(=O)N1CCCCCC1`, for which the EC50 was > 37400 nM (inactive). As to `N#Cc1c(C(F)(F)F)cc(-c2ccc(Cl)cc2)nc1SCC(=O)Nc1ncccn1`, the EC50 was > 37400 nM (inactive). With `Cc1ccc(C(=O)CCN2CCC(c3ccccc3)C2)cc1` (configuration not stated) the figure was 335 nM; with `O=C(CCN1CCC(c2ccccc2)C1)c1ccccc1` (configuration not stated), 97.3 nM; with `COc1cc(C(=O)CCN2CCC(c3ccccc3)C2)cc(OC)c1OC` (configuration not stated), 131 nM.

Turning to `N#Cc1c(C(F)(F)F)cc(-c2ccc(Cl)cc2)nc1SCC(=O)N1CCCC1`, the EC50 is > 37400 nM (inactive). `CC(CN1CCCC1Cc1ccccc1)C(=O)c1ccc2c(c1)OCCO2` (configuration not stated): the EC50 was 438 nM.
